The target in test [1] is 5'-AMP-activated protein kinase catalytic subunit alpha-1 (Homo sapiens) (UniProt Q13131). The test can be described thus: Inhibition of AMPKa1 ATP loop (IGHYILGDTLGVGTFGKVK) in human PBMC at 1 uM. Conditions: pooled result: one value given for 5 cell lines, strains, targets or settings.
Test [2] concerns the target Cyclin-dependent kinase 2 (Homo sapiens) (UniProt P24941). Description: Inhibition of CDK2 labeling at conserved Lys1 (LTGEVVALKK) in human PBMC at 1 uM.
The target in test [3] is Proto-oncogene tyrosine-protein kinase Src (Homo sapiens) (UniProt P12931). Description: Inhibition of SRC ATP binding site (QGAKFPIKWTAPEAALYGR) in human PBMC at 1 uM.
Chain of Proto-oncogene tyrosine-protein kinase Src (Homo sapiens) (P12931 2-536 limits assumed): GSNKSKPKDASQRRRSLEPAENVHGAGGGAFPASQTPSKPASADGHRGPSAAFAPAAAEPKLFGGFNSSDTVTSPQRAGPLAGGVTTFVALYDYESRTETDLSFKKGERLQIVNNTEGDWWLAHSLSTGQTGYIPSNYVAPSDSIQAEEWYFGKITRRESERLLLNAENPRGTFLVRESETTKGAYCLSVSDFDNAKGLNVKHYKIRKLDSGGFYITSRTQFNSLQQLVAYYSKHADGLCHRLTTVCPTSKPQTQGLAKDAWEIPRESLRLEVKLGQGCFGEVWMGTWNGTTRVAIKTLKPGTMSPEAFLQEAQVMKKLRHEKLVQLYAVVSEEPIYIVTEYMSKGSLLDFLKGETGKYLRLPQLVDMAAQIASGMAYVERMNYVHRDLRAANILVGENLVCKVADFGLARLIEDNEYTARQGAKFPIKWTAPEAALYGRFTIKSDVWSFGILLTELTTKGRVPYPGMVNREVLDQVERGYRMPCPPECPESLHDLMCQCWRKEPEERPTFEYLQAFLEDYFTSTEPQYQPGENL
The target of test [4] is Inhibitor of nuclear factor kappa-B kinase subunit alpha (Homo sapiens) (UniProt O15111). The test can be described thus: Inhibition of IKKa conserved Lys2 (DLKPENIVLQDVGGK) in human PBMC at 1 uM.
Chain of Inhibitor of nuclear factor kappa-B kinase subunit alpha (Homo sapiens) (O15111 whole entry): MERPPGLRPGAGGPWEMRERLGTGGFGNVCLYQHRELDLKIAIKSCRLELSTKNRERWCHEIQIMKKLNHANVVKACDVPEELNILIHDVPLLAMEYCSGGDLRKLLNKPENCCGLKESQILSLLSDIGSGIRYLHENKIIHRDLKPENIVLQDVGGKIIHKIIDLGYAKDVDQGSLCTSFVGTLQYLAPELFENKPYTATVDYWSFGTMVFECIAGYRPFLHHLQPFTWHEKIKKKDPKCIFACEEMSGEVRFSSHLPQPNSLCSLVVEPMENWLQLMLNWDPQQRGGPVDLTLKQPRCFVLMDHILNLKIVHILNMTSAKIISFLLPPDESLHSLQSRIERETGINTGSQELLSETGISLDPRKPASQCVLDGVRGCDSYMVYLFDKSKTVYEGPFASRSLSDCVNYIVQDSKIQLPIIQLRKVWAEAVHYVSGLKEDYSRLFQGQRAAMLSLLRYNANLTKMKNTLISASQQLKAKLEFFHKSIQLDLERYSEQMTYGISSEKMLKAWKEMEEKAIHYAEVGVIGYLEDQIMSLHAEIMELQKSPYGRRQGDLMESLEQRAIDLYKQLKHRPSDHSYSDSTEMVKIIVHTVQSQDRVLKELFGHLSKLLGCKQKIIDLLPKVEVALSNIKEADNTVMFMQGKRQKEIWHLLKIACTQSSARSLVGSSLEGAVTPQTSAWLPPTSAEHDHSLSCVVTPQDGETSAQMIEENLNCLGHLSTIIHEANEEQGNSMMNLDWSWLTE
The target in test [5] is Serine/threonine-protein kinase 10 (Homo sapiens) (UniProt O94804). Description: Inhibition of LOK conserved Lys1 (NKETGALAAAKVIETK) in human PBMC at 1 uM.
Chain of Serine/threonine-protein kinase 10 (Homo sapiens) (O94804 whole entry, looked up): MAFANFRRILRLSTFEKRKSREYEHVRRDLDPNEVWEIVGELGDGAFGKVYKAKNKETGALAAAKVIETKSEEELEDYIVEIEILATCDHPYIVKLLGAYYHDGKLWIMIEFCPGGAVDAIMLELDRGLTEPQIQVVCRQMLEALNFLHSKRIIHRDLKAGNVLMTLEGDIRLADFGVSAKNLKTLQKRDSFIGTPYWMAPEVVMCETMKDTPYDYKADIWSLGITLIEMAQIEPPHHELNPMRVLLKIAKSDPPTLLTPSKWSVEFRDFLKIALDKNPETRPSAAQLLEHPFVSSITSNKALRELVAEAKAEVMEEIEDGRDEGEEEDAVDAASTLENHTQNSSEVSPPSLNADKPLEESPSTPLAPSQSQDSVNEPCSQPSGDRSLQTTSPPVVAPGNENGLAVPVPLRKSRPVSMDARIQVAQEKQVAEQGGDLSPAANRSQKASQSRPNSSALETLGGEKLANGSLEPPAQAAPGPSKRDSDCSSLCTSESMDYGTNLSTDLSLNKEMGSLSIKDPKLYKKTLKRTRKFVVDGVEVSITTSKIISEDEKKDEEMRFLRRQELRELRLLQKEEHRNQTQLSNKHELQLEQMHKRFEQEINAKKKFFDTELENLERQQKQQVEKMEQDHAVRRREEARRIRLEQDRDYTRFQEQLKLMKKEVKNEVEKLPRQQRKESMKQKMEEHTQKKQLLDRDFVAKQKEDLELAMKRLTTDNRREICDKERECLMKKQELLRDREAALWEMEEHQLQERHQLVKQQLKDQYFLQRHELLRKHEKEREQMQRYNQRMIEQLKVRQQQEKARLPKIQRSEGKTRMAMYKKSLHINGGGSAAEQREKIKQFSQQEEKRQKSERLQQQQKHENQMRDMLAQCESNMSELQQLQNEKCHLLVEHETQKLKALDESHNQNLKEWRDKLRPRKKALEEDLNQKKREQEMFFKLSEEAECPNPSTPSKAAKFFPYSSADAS
Test [6] concerns the target T1, Mitogen-activated protein kinase kinase kinase 5 (Homo sapiens) (UniProt Q99683).
T1 sequence (whole entry): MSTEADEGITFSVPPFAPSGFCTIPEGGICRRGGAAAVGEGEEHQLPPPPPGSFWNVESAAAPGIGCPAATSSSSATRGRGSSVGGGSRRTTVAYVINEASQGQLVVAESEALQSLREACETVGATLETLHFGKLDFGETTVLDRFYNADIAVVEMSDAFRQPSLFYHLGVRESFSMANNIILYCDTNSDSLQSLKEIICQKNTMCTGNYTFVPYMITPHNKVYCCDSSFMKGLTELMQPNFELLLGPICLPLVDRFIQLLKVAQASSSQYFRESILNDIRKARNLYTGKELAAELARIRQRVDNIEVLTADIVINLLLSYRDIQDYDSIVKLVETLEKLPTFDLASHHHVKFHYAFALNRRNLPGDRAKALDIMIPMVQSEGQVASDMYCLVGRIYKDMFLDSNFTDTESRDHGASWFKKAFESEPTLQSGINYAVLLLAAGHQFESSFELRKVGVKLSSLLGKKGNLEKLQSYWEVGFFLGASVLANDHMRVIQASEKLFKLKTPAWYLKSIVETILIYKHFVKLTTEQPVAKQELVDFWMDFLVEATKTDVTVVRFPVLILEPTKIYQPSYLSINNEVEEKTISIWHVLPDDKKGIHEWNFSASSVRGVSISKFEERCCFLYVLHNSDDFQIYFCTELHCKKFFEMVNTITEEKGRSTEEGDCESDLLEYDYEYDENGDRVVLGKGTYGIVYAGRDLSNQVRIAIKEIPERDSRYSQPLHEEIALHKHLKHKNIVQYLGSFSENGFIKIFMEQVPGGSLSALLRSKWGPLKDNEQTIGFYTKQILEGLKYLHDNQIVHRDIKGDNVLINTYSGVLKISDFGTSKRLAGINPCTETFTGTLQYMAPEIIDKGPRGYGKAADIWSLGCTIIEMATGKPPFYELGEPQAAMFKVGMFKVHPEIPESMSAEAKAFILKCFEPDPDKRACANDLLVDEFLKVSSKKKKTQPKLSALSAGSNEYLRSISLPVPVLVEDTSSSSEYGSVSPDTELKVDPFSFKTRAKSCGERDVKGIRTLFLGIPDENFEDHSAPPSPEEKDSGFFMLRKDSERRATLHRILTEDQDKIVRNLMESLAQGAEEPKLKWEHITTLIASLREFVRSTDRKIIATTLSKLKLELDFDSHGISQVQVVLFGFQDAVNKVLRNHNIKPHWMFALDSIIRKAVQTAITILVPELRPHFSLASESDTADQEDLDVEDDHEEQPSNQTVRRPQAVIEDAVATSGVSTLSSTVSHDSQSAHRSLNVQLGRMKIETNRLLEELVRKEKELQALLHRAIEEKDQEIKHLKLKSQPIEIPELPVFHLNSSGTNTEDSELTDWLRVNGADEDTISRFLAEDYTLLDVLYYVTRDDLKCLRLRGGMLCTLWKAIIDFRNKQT
The test can be described thus: Inhibition of MAP3K5 conserved Lys2 (DIKGDNVLINTYSGVLK) in human PBMC at 1 uM.

Test [7] has as its target Ribosomal protein S6 kinase alpha-1 (Homo sapiens) (UniProt Q15418). The test can be described thus: Inhibition of RSK1 domain2 conserved Lys2 (DLKPSNILYVDESGNPECLR) in human PBMC at 1 uM.
In test [8] the target is STE20-like serine/threonine-protein kinase (Homo sapiens) (UniProt Q9H2G2). The test can be described thus: Inhibition of SLK conserved Lys2 (DLKAGNILFTLDGDIK) in human PBMC at 1 uM.
Chain of STE20-like serine/threonine-protein kinase (Homo sapiens) (Q9H2G2 whole entry, looked up): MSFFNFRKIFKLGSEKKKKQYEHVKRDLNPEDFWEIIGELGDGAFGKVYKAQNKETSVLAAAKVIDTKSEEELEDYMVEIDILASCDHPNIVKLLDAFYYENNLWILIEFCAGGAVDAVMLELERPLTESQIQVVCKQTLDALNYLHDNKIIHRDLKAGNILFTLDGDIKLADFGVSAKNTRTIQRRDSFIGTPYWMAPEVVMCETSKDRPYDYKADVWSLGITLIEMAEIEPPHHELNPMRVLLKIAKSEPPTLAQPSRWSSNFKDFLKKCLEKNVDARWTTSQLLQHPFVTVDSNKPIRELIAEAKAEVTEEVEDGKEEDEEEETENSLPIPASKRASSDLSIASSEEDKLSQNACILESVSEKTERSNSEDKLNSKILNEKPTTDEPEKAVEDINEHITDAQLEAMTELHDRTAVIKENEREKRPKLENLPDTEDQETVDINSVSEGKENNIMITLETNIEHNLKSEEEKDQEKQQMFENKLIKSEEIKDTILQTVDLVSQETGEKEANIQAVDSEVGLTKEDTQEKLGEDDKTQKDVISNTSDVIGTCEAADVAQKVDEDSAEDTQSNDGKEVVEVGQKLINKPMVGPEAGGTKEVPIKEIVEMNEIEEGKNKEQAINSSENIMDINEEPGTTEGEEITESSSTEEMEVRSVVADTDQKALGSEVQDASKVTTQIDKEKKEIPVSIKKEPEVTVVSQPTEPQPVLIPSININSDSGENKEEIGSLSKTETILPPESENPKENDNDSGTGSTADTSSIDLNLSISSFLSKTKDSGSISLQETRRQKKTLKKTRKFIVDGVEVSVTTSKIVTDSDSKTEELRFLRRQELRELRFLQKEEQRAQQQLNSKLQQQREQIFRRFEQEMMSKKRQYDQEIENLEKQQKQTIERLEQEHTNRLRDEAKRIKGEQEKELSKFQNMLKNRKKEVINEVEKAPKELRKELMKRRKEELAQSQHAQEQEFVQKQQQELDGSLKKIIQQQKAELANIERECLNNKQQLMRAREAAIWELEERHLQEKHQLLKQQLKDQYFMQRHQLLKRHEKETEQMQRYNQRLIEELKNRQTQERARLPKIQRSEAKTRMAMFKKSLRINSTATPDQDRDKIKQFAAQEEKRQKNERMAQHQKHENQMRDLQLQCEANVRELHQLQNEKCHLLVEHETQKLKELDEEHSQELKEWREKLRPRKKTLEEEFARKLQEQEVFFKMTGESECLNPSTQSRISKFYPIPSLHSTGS
For test [9], the target named is RAC-alpha serine/threonine-protein kinase (Homo sapiens) (UniProt P31749). The test can be described thus: Inhibition of AKT1 labeling at ATP binding site (GTFGKVILVK) in human PBMC at 0.1 uM.
Chain of RAC-alpha serine/threonine-protein kinase (Homo sapiens) (P31749 whole entry): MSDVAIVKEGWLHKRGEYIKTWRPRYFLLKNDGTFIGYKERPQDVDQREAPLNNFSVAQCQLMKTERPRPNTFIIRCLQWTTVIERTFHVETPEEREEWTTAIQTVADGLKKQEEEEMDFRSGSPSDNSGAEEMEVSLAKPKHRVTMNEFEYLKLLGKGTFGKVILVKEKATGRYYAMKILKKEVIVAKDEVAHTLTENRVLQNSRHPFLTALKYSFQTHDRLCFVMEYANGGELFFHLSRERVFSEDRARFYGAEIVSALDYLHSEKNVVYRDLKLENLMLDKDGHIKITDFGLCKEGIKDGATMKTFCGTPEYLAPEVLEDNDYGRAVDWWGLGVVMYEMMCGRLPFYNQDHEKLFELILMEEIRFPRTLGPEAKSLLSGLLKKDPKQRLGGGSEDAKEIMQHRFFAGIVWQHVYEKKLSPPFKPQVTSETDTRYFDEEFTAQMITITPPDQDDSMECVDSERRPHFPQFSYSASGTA
Test [10] has as its target Serine/threonine-protein kinase 10 (Homo sapiens) (UniProt O94804). Description: Inhibition of LOK conserved Lys2 (DLKAGNVLMTLEGDIR) in human PBMC at 0.1 uM.
The target of test [11] is Mitogen-activated protein kinase kinase kinase 1 (Homo sapiens) (UniProt Q13233). The test can be described thus: Inhibition of MAP3K1 conserved Lys2 (DVKGANLLIDSTGQR) in human PBMC at 0.1 uM.
For test [12], the target named is Ribosomal protein S6 kinase alpha-1 (Homo sapiens) (UniProt Q15418). Description: Inhibition of RSK1 conserved Lys2 (DLKPENILLDEEGHIK) in human PBMC at 0.1 uM.
Chain of Ribosomal protein S6 kinase alpha-1 (Homo sapiens) (Q15418 whole entry, the tested form may be a part): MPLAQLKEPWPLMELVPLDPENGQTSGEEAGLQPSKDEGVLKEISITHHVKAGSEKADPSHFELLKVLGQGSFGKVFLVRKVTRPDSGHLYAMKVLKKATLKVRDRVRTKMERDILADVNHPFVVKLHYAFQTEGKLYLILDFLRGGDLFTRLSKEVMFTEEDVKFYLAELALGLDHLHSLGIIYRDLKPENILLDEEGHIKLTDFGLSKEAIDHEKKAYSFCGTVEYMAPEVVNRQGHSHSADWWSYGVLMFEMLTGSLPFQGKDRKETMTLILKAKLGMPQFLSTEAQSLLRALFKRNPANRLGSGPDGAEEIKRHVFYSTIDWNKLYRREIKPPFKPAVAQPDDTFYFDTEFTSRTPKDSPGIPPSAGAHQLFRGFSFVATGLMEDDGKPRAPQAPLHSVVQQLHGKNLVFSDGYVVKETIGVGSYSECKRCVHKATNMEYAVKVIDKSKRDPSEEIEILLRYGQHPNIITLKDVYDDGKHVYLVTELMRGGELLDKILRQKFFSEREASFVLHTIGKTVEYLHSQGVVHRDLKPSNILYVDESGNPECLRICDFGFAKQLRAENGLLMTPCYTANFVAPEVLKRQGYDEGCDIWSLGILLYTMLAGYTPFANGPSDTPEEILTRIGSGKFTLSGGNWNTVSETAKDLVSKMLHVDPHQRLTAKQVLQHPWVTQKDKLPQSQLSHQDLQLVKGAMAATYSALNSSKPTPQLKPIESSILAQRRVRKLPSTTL

As usually defined, the inhibition is the relative decrease from the control value, in per cent. With `CC(C)n1cc(-c2cc(-c3ccc(CN4CCOCC4)cc3)cnc2N)nn1`, the inhibition is 13.1% in [1]; 11.3% in [2]; -2.3% in test [3]; -1.2% in test [4]; 32.2% in test [5]; 25.3% in test [6]. For the same compound, the inhibition in test [7] was -6%; in test [8], 30.5%; in test [9] it was 21%; in test [10], 13.8%; in test [11], 29.6%; in [12], 11.8%.
